Compound	melting point [°C]
OCC(O)Cc1nccn1CCCc1cccc(OCc2coc(/C=C/c3ccc(C(F)(F)F)cc3)n2)c1 (stereo not shown) [Compound B25, 3-[1-(3-{3-[(2-{(E)-2-[4-(trifluoromethyl)phenyl]ethenyl}-1,3-oxazol-4-yl)methoxy]phenyl]propyl)-1H-imidazol-2-yl]-1,2-propanediol]	102 to 104
Fc1ccc(/C=C/c2nc(COc3cccc(CCCn4ccnn4)c3)co2)cc1 [Compound B3, 1-{3-[3-({2-[(E)-2-(4-fluorophenyl)ethenyl]-1,3-oxazol-4-yl}methoxy)phenyl]propyl}-1H-1,2,3-triazole]	105 to 106
CCc1ccc(/C=C/c2nc(COc3ccc(CCCCn4ccnc4CCO)cc3)co2)cc1 [Compound B13, 2-[1-[4-[4-[[2-[(E)-2-(4-ethylphenyl)ethenyl]-1,3-oxazol-4-yl]methoxy]phenyl]butyl]-1H-imidazol-2-yl]-1-ethanol]	94 to 95
Fc1ccc(/C=C/c2nc(COc3cccc(CCCn4ccnn4)c3)co2)c(F)c1 [Compound B8, 1-{3-[3-({2-[(E)-2-(2,4-difluorophenyl)ethenyl]-1,3-oxazol-4-yl}methoxy)phenyl]propyl}-1H-1,2,3-triazole]	89 to 90
OCCc1nccn1CCCc1ccc(OCc2coc(/C=C/c3ccc(F)cc3F)n2)cc1 [Compound B20, 2-[1-[3-[4-[[2-[(E)-2-(2,4-difluorophenyl)ethenyl]-1,3-oxazol-4-yl]methoxy]phenyl]propyl]-1H-imidazol-2-yl]-1-ethanol]	94 to 96
OCCc1nccn1CCCCc1ccc(OCc2coc(/C=C/c3ccc(F)cc3)n2)cc1 [Compound B14, 2-(1-{4-[4-({2-[(E)-2-(4-fluorophenyl)ethenyl]-1,3-oxazol-4-yl}methoxy)phenyl]butyl)-1H-imidazol-2-yl)-1-ethanol]	130 to 132
Cc1cccc(/C=C/c2nc(COc3ccc(CCCCn4ccnc4CCO)cc3)co2)c1 [Compound B11, 2-[1-[4-[4-[[2-[(E)-2-(3-methylphenyl)ethenyl]-1,3-oxazol-4-yl]methoxy]phenyl]butyl]-1H-imidazol-2-yl]-1-ethanol]	109 to 111
Fc1ccc(/C=C/c2nc(COc3ccc(CCCCn4ccnn4)cc3)co2)cc1 [Compound B2, 1-{4-[4-({2-[(E)-2-(4-fluorophenyl)ethenyl]-1,3-oxazol-4-yl}methoxy)phenyl]butyl}-1H-1,2,3-triazole]	124 to 125
OCC(O)Cc1nccn1CCCCc1ccc(OCc2coc(/C=C/c3c(F)cccc3F)n2)cc1 (stereo not shown) [Compound B28, 3-[1-[4-[4-[[2-[(E)-2-(2,6-difluorophenyl)ethenyl]-1,3-oxazol-4-yl]methoxy]phenyl]butyl]-1H-imidazol-2-yl]-1,2-propanediol]	123 to 125
OCC(O)Cc1nccn1CCCCc1ccc(OCc2coc(/C=C/c3ccc(F)cc3)n2)cc1 (stereo not shown) [Compound B23, 3-(1-{4-[4-({2-[(E)-2-(4-fluorophenyl)ethenyl]-1,3-oxazol-4-yl}methoxy)phenyl]butyl}-1H-imidazol-2-yl)-1,2-propanediol]	114 to 116
OCC(O)Cc1nccn1CCCc1cccc(OCc2coc(/C=C/c3ccc(F)cc3F)n2)c1 (stereo not shown) [Compound B27, 3-(1-{3-[3-({2-[(E)-2-(2,4-difluorophenyl)ethenyl]-1,3-oxazol-4-yl}methoxy)phenyl]propyl}-1H-imidazol-2-yl)-1,2-propanediol]	92 to 94
OCCc1nccn1CCCCc1ccc(OCc2coc(/C=C/c3ccc(Cl)cc3)n2)cc1 [Compound B15, 2-[1-[4-[4-[[2-[(E)-2-(4-chlorophenyl)ethenyl]-1,3-oxazol-4-yl]methoxy]phenyl]butyl]-1H-imidazol-2-yl]-1-ethanol]	127 to 128
OCC(O)Cc1nccn1CCCCc1ccc(OCc2coc(/C=C/c3ccc(C(F)(F)F)cc3)n2)cc1 (stereo not shown) [Compound B24, 3-[1-(4-(4-[(2-{(E)-2-[4-(trifluoromethyl)phenyl]ethenyl)-1,3-oxazol-4-yl)methoxy]phenyl}butyl)-1H-imidazol-2-yl]-1,2-propanediol]	142 to 143
OCCc1nccn1CCCCc1ccc(OCc2coc(/C=C/c3ccc(F)cc3F)n2)cc1 [Compound B19, 2-[1-[4-[4-[[2-[(E)-2-(2,4-difluorophenyl)ethenyl]-1,3-oxazol-4-yl]methoxy]phenyl]butyl]-1H-imidazol-2-yl]-1-ethanol]	93 to 95
Fc1ccc(/C=C/c2nc(COc3ccc(CCCCn4ccnn4)cc3)co2)c(F)c1 [Compound B7, 1-{4-[4-({2-[(E)-2-(2,4-difluorophenyl)ethenyl]-1,3-oxazol-4-yl}methoxy)phenyl]butyl}-1H-1,2,3-triazole]	115 to 117
OCC(O)Cc1nccn1CCCCc1ccc(OCc2coc(/C=C/c3ccc(F)cc3F)n2)cc1 (stereo not shown) [Compound B26, 3-(1-{4-[4-({2-[(E)-2-(2,4-difluorophenyl)ethenyl]-1,3-oxazol-4-yl)methoxy)phenyl]butyl}-1H-imidazol-2-yl)-1,2-propanediol]	126 to 128
FC(F)(F)c1ccc(/C=C/c2nc(COc3ccc(CCCn4ccnn4)cc3)co2)cc1 [Compound B5, 1-(3-{4-[(2-((E)-2-[4-(trifluoromethyl)phenyl]ethenyl)-1,3-oxazol-4-yl)methoxy]phenyl)propyl)-1H-1,2,3-triazole]	157 to 158
Cc1ccccc1/C=C/c1nc(COc2ccc(CCCCn3ccnc3CCO)cc2)co1 [Compound B12, 2-[1-[4-[4-[[2-[(E)-2-(2-methylphenyl)ethenyl]-1,3-oxazol-4-yl]methoxy]phenyl]butyl]-1H-imidazol-2-yl]-1-ethanol]	91 to 93
Cc1cccc(/C=C/c2nc(COc3ccc(CCCCn4ccnc4CC(O)CO)cc3)co2)c1 (stereo not shown) [Compound B22, 3-(1-{4-[4-({2-[(E)-2-(3-methylphenyl)ethenyl]-1,3-oxazol-4-yl}methoxy)phenyl]butyl}-1H-imidazol-2-yl)-1,2-propanediol]	102 to 104
FC(F)(F)c1ccc(/C=C/c2nc(COc3cccc(CCCn4ccnn4)c3)co2)cc1 [Compound B6, 1-(3-{3-[(2-((E)-2-[4-(trifluoromethyl)phenyl]ethenyl}-1,3-oxazol-4-yl)methoxy]phenyl}propyl)-1H-1,2,3-triazole]	115 to 116
Cc1ccc(/C=C/c2nc(COc3ccc(CCCCn4ccnc4CCO)cc3)co2)cc1 [Compound B10, 2-[1-[4-[4-[[2-[(E)-2-(4-methylphenyl)ethenyl]-1,3-oxazol-4-yl]methoxy]phenyl]butyl]-1H-imidazol-2-yl]-1-ethanol]	108 to 109
OCCc1nccn1CCCCc1ccc(OCc2coc(/C=C/c3ccc(Br)cc3)n2)cc1 [Compound B16, 2-[1-[4-[4-[[2-[(E)-2-(4-bromophenyl)ethenyl]-1,3-oxazol-4-yl]methoxy]phenyl]butyl]-1H-imidazol-2-yl]-1-ethanol]	149 to 150
